The subject of this test is 96% ethanol induced gastric lesions. The test can be described thus: 96% ethanol induced gastric lesions cytoprotection model. As to conditions: 8 animals, mean±standard deviation, saline control 255.5±78.1, p<0.05 compared to controls. It counts as in vivo, male Wistar rats. As for the experimental part: Bioactive peptide fragments SYSMEHFRWGKPV and YGGFM were tested individually and in combination, by means of the standard cytoprotection model of the 96% ethanol induced gastric lesions in male Wistar rats (6, 7). In the control group of 8 animals treated with physiological saline the area of gastric lesions was 255.5±78.1 mm^2 (mean±standard deviation, FIG. 1) (7). In the group of 8 animals treated with the combination of peptides SYSMEHFRWGKPV (1 mg/kg) and YGGFM (10 mg/kg) the area of gastric lesions was 0.3±0.7 mm^2 (p<0.05 compared to controls, FIG. 1) (7). In the group of 8 animals treated with peptide SYSMEHFRWGKPV (1 mg/kg) the area of gastric lesions was 5.9±8 mm^2 (p<0.05 compared to controls, FIG. 1) (7). In the group of 8 animals treated with peptide YGGFM (10 mg/kg) the area of gastric lesions was 139.4±36.1 mm^2 (p<0.05 compared to controls, FIG. 1) (7). The combination of peptides SYSMEHFRWGKPV and YGGFM that provided best cytoprotective effect is patented under the name KOMET.
FIG. 1 defines the cytoprotective effects of the bioactive peptide fragments SYSMEHFRWGKPV and YGGFM of the pro-opiomelanocortin molecule, and their combination KOMET, in the model of the ethanol induced gastric lesions in rats.
FIG. 1. […]

Consider YGGFM, for which the “area of gastric lesions” value (10 mg/kg) was determined as 139.4±36.1 mm^2.
SYSMEHFRWGKPV: the “area of gastric lesions” value (1 mg/kg) turned out to be 5.9±8 mm^2.
